For 44 compounds, GI50 and TGI results are on record in PubChem BioAssay (NCI).

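Interpolation was linear, between the two tested concentrations surrounding the appropriate level; five concentrations were tested over 48 hours in 96-well plates. GI50 = concentration required for 50% inhibition of growth. TGI marks complete inhibition of growth.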 Where only a bound is given, the exact number is not on record here.

This experiment has as its system MDA-MB-468 breast. Put plainly: NCI tumour cell line growth inhibition, 48 h.
With `Cc1c(C)n(CCCN2CCN(C)CC2)c2ccc(Oc3cccc(C(=O)N4CCN(CCc5ccc(F)cc5)CC4)c3)cc12`, the GI50 is 1.16 µM and the TGI was found to be 2.47 µM.
The like results for `COc1ccc(/C=C\c2cc(OC)c(OC)c(OC)c2)cc1OCC(=O)Nc1nc2ccc(F)cc2s1` were, in that order, 3.68 µM and > 100 µM.
The like results for `COc1ccc(C(=O)C(CN(C)C)CN(C)C)cc1` were, in that order, 1.47 µM and 4.31 µM.
For `C=CN(C(=O)N1CCN(c2cc3c(cc2F)c(=O)c(C(=O)O)cn3C2CC2)CC1)c1nc(-c2ccc(OC)cc2)cs1`, in that order: 3.07 µM and 28 µM.
Take `COc1cc(/C=C/c2cc(/C=C/c3ccc(O)c(OC)c3)n(C(=O)c3ccc(Cl)cc3)n2)ccc1O`: the GI50 was 2.64 µM and the TGI is 7.9 µM.
The like results for `Clc1c(Cl)[n+](Cc2ccc3ccccc3c2)cn1Cc1ccc2ccccc2c1` were, in that order, 0.668 µM and 2.28 µM.
`O=c1oc2ccc(I)cc2c(=O)n1-c1ccc(Br)cc1F`: the GI50 is 1.45 µM and the TGI is 4.88 µM.
For `Cc1ccc(O)c(NC(=O)c2cccc(Nc3ccnc(C(F)(F)F)c3)c2)c1`, the GI50 is 3.19 µM and the TGI turned out to be 54.9 µM.
The like results for `CCOC(=O)c1cc(C(=O)c2ccc(OC)cc2)n2ccc(/C=C/c3cc[n+](CC(=O)c4ccc(OC)cc4)cc3)cc12` were, in that order, 1.71 µM and 3.63 µM.
For `C=C(c1ccc(OC)c(/C=C/C(=O)c2ccc3c(c2)OCO3)c1)c1cc(OC)c(OC)c(OC)c1`, in that order: 1.65 µM and 8.92 µM.
For the compound `COc1cc2c(c(OC)c1OC)-c1ccc(OC)c(=O)cc1C(NC(=O)COc1ccccc1)CC2` (configuration not stated), the GI50 is < 0.01 µM and the TGI stood at 59.4 µM.
The like results for `CCOC(=O)c1c(NC(=O)c2ccc(C(F)(F)F)cc2)sc2c(CN3CCN(C)CC3)c(O)ccc12` were, in that order, 1.78 µM and 3.93 µM.
For `Fc1ccc(-c2cc3nc(C(Cl)Cl)nc(-c4ccco4)n3n2)cc1`, in that order: 0.242 µM and 0.793 µM.
The like results for `COc1ccc(Cn2cc3c(c2-c2cc(OC)c(OC)c(OC)c2)CCCc2cnoc2-3)cc1` were, in that order, 0.563 µM and > 100 µM.
For the compound `CC(C)C[C@H](NC(=O)CNC(=O)c1cc(Cl)ccc1Cl)B(O)O`, the GI50 is < 0.0137 µM and the TGI amounted to 0.0217 µM.
Consider `Oc1c(Cl)cc(Cl)c(Cl)c1CNCCNCc1c(O)c(Cl)cc(Cl)c1Cl`, for which the GI50 is 0.917 µM and the TGI was 5.85 µM.
For `CC(=O)O[C@@H]1C2CCC3C(CC[C@@]4(C)C3CC[C@@H]4C(C)N(C)C)[C@@]2(C)CC[C@@H]1NC(=O)C=C(C)C` (some centres not stated), in that order: 1.4 µM and 3.06 µM.
For `Cc1onc(-c2ccccc2)c1C(=O)N/N=C/c1cc(Cl)cc(Cl)c1O`, in that order: 3.89 µM and 42.9 µM.
For `OC(CNc1ccnc2cc(Cl)ccc12)CNc1ccnc2cc(Cl)ccc12`, in that order: 1.43 µM and 2.93 µM.
`COc1ccc(C2(Cl)c3ccccc3N(c3ccccc3)c3ccccc32)cc1`: the GI50 is 0.391 µM and the TGI was determined as 2.1 µM.
The like results for `COc1cc(C(=O)NC2CCc3cc(OC)c(OC)c(OC)c3-c3ccc(OC)c(=O)cc32)cc(OC)c1OC` (configuration not stated) were, in that order, 0.0853 µM and > 100 µM.
For `O=C(CSc1nc2c(n1Nc1ccccc1)-c1ccccc1SC2)Nc1nc(-c2ccc(Cl)cc2)cs1`, in that order: 18 µM and > 100 µM.
The like results for `CC(C)(C)C(=O)OCOP(=O)(NCc1ccccc1)C1CCCN(O)C1=O` (configuration not stated) were, in that order, 1.43 µM and 5.07 µM.
As to `O=C1NC(=C(Cl)Cl)/C(=N/S(=O)(=O)N2CCCCC2)N1`, the GI50 is 2.39 µM and the TGI was 13.3 µM.
With `CCCCCCCCCCCCCCCC1=NCC[N+]1(CCO)CCO`, the GI50 was 2.13 µM and the TGI is 7.03 µM.
For the compound `CNC(=O)c1ccc(N2C(=S)N(c3cnc(C#N)c(C(F)(F)F)c3)C(=O)C23CCC3)cc1F`, the GI50 is 49.6 µM and the TGI was > 100 µM.
For `O=C(N/N=C/c1ccc([N+](=O)[O-])o1)c1[nH]c2ccc(Br)cc2c1-c1ccccc1`, in that order: 0.304 µM and 1.7 µM.
For `CNC(=O)c1c(C)oc2cc(Oc3ncnc4cc(OC)c(OC)cc34)ccc12`, in that order: > 100 µM and > 100 µM.
For the compound `CCOC(=O)C1=CCCC[C@H]1S(=O)(=O)Nc1ccc(F)cc1Cl`, the GI50 is 10.8 µM and the TGI worked out at 42.4 µM.
For `Cc1cc2c(C(=O)NC[C@H](C)c3ccccc3)c(O)c(O)cc2c(O)c1-c1c(C)cc2c(C(=O)NC[C@H](C)c3ccccc3)c(O)c(O)cc2c1O`, in that order: 0.596 µM and 3.38 µM.
`NS(=O)(=O)OC[C@H]1C[C@@H](Nc2ccnc3cc(-c4cccc(SC(F)(F)F)c4)nn23)[C@H](O)[C@@H]1O`: the GI50 was < 0.01 µM and the TGI is < 0.0127 µM.
On to `CC[C@H](C)[C@H](NC(=O)[C@H]1CCCCN1C)C(=O)N(C)[C@H](C[C@@H](OC(C)=O)c1cccc(C(=O)N[C@@H](Cc2ccccc2)C[C@H](C)C(=O)OC)n1)C(C)C`, for which the GI50 was 0.000917 µM.
Take `COc1ccc2ncn(-c3cc(O[C@H](C)c4ccccc4C(F)(F)F)c(C(N)=O)s3)c2c1`: the GI50 was 0.067 µM and the TGI was 1 µM.
For `O=C1N[C@@H]2[C@@H](O)[C@@H](O)[C@H](O)C[C@H]2c2cc3c(c(O)c21)OCCO3`, in that order: 0.0955 µM and 0.455 µM.
`O=c1c2ccccc2sc2c(NCCCNCCO)nc3ccccc3c12`: the GI50 was 1.52 µM and the TGI turned out to be 3.12 µM.
Regarding `Cc1cccc2sc(/N=C(\N)C(Br)Br)nc12`, the GI50 is 1.63 µM and the TGI is 4.58 µM.
The like results for `COc1ccccc1Nc1cc(O)c2c(=O)cc(-c3ccccc3)oc2c1` were, in that order, 1.5 µM and 6.42 µM.
The like results for `C[C@@H](Oc1cc(-n2cnc3ccc(OC4CCN(C)CC4)cc32)sc1C(N)=O)c1ccccc1Cl` were, in that order, 0.00441 µM and 0.202 µM.
Regarding `Cc1cc2nc(NCCN)n(Cc3ccc(F)c(Cl)c3)c2cc1C`, the GI50 was 3.61 µM and the TGI came out at 15.8 µM.
Turning to `O=C1Nc2c(ccc(Cl)c2Cl)/C1=C/c1cc(Br)c(O)c(Br)c1`, the GI50 was 2.96 µM and the TGI was > 26.3 µM.
The like results for `CN[C@H]1CN(c2ccc3c(=O)c(C(=O)O)cn(-c4nccs4)c3n2)C[C@@H]1OC` were, in that order, 0.822 µM and 2.86 µM.
The like results for `CCc1ccc(Oc2c(-c3ccc(OCc4ccc(Cl)cc4)cc3O)n[nH]c2C(F)(F)F)cc1` were, in that order, 1.73 µM and 3.96 µM.
`COc1cc2c(cc1OC(C)C)[C@H](c1ccc(Cl)cc1)N(c1ccc(N(C)CC3CCC(N4CCN(C)C(=O)C4)CC3)cc1)C(=O)C2` (some centres not stated): the GI50 is 3.37 µM and the TGI turned out to be 8.93 µM.
`Fc1ccc(-c2c(-c3ccncc3)nc3n2CCS3)cc1`: the GI50 was > 10.4 µM and the TGI is > 25 µM.
